According to ChEMBL document CHEMBL5260832, “Hepatoprotective natural triterpenoids” (Eur J Med Chem, 2018):

Tests used:
Mus musculus [1] = test: Hepatoprotective activity against CCl4-induced liver injury mouse model assessed as reduction in ALT at 20 ug/mL, ip relative to control (reference value: 13.23 IU/L); type: functional; conditions: dose 20 µg/ml
Mus musculus [2] = test: Hepatoprotective activity against CCl4-induced liver injury mouse model assessed as reduction in AST at 20 ug/mL, ip relative to control (reference value: 9.27 IU/L); type: functional; conditions: dose 20 µg/ml
Mus musculus [3] = test: Hepatoprotective activity against CCl4-induced liver injury mouse model assessed as reduction in MDA level at 20 ug/mL, ip relative to control (reference value: 9.27 IU/L); type: functional; conditions: dose 20 µg/ml
Mus musculus [4] = test: Hepatoprotective activity against CCl4-induced liver injury mouse model assessed as increase in SOD level at 20 ug/mL, ip relative to control (reference value: 5.89 IU/L); type: functional; conditions: dose 20 µg/ml
Hepatocyte [5] = test: Hepatoprotective activity against D-GaIN-induced toxicity in mouse hepatocyte relative to control; type: functional, cell-based
Mus musculus [6] = test: Hepatoprotective activity in mouse model of D-GaIN/LPS-induced liver injury assessed as inhibition of sAST secretion at 100 mg/kg, po relative to control; type: functional
Mus musculus [7] = test: Hepatoprotective activity in mouse model of D-GaIN/LPS-induced liver injury assessed as inhibition of sALT level secretion at 100 mg/kg, po relative to control; type: functional
Hepatocyte [8] = test: Hepatoprotective activity against CCL4-induced rat hepatocyte toxicity assessed as decrease in GOT level at 3.33 mg/mL preincubated for 30 mins followed by CCL4 addition and measured after 180 mins by colorimetric method; type: functional; conditions: time 210 min, 3.5 h
Hepatocyte [9] = test: Hepatoprotective activity against CCL4-induced rat hepatocyte toxicity assessed as decrease in GPT level at 3.33 mg/mL preincubated for 30 mins followed by CCL4 addition and measured after 180 mins by colorimetric method; type: functional; conditions: time 210 min, 3.5 h
Hepatocyte [10] = test: Hepatoprotective activity against CCL4-induced rat hepatocyte toxicity assessed as decrease in ALP level at 3.33 mg/mL preincubated for 30 mins followed by CCL4 addition and measured after 180 mins by colorimetric method; type: functional; conditions: time 210 min, 3.5 h
[11] = Cytotoxicity against human HepG2 cells assessed as reduction in cell viability by SRB assay; type: toxicity, cell-based
HepG2 = test: Cytoprotective activity against t-BHP induced cell death in human HepG2 cells assessed as cell survival rate at 10 uM relative to control; type: functional
Hepatocyte [12] = test: Hepatoprotective activity against D-GaIN/TNFalpha-induced cell death in mouse hepatocyte at 100 uM relative to control; type: functional, cell-based; conditions: Mus musculus, Hepatocyte
Hepatocyte [13] = test: Hepatoprotective activity against D-GaIN/TNFalpha-induced cell death in mouse hepatocyte at 100 uM; type: functional, cell-based
Hepatocyte [14] = test: Hepatoprotective activity against D-GaIN/TNFalpha-induced cell death in mouse hepatocytes at 50 uM assessed as inhibition of cell death relative to control; type: functional; parameters: scale not given: the % may be the effect or the level left
Hepatocyte [15] = test: Hepatoprotective activity against D-GaIN/TNFalpha -induced cell death in mouse hepatocyte assessed as inhibition at 50 uM relative to control; type: functional; parameters: scale not given: the % may be the effect or the level left
Mus musculus [16] = test: Hepatoprotective activity against D-GaIN/CCl4 induced liver injury mouse model assessed as reduction in GPT level at 1.0 microg/ml, iv relative to control; type: functional; parameters: scale not given: the % may be the effect or the level left; conditions: dose 1 µg/ml
Rattus norvegicus = test: Hepatoprotective activity in GaIN-induced rat model of liver injury assessed as reduction in ALT level at 4 mg/kg relative to control; type: functional; parameters: scale not given: the % may be the effect or the level left
L02 = test: Protection against D-GalN-induced cell damage in human L02 cells […] assessed as reduction in cell viability […]; type: functional, cell-based
Mus musculus [17] = species on record: Mus musculus; test: Hepatoprotective activity against D-GaIN-induced liver injury mouse model assessed as cell death with increasing cell survival rates at 10 uM relative to control; type: functional

C[C@@H]1CC[C@]2(C(=O)O)CC[C@]3(C)C(=CC[C@@H]4[C@@]5(C)[C@H](O)[C@@H](O)[C@@H](O)C(C)(C)[C@@H]5CC[C@]43C)[C@@H]2[C@]1(C)O
Activity (Mus musculus [1]): 4.75 IU/L
Activity (Mus musculus [2]): 4.24 IU/L
Activity (Mus musculus [3]): 3.84 nmol/mL
Activity (Mus musculus [4]): 21.9 U/ml

C[C@@H]1CC[C@]2(C(=O)O[C@@H]3O[C@H](CO)[C@@H](O)[C@H](O)[C@H]3O)CC[C@]3(C)C(=CC[C@@H]4[C@@]5(C)C[C@@H](O)[C@@H](O)C(C)(C)[C@@H]5CC[C@]43C)[C@@H]2[C@]1(C)O
IC50 (Hepatocyte [5]): 14.1 µM
inhibition in vivo at 100 mg/kg (Mus musculus [6]): 59.7%
inhibition in vivo at 100 mg/kg (Mus musculus [7]): 57.2%

CC(=O)O[C@H]1CC[C@]2(C)[C@H]3CC=C4[C@@H]5CC(C)(C)CC[C@]5(C(=O)O)CC[C@@]4(C)[C@]3(C)CC[C@H]2C1(C)C [ACETYL OLEANOLIC ACID]
Activity (Hepatocyte [8]): 27.8 IU/L
Activity (Hepatocyte [9]): 17.5 IU/L
Activity (Hepatocyte [10]): 16.1 IU/L

COc1cc([C@H]2Oc3cc([C@H]4Oc5cc(O)cc(O)c5C(=O)[C@@H]4O)ccc3O[C@@H]2CO)ccc1O [SILYBIN A]
EC50 [11]: 75.7 µM
Activity (HepG2): 52.5%
IC50 (Hepatocyte [12]): 29.9 µM
IC50 (Hepatocyte [5]): 38.8 µM
IC50 (Hepatocyte [13]): 33.6 µM
Activity (Hepatocyte [14]): 61.2%
Activity (Hepatocyte [15]): 61.2%

CC1(C)C[C@H]2C3=CC[C@@H]4[C@@]5(C)CCC(=O)C(C)(C)C5CC[C@@]4(C)[C@]3(C)CC[C@@]2(C(=O)O)CC1=O (stereo not given in full)
Activity (Mus musculus [16]): 43%

COC(=O)[C@]12CC[C@@H](C)[C@H](C)[C@H]1C1=CC[C@@H]3[C@@]4(C)C[C@@H](OC)C(=O)[C@@](C)(C=O)[C@@H]4CC[C@@]3(C)[C@]1(C)CC2
Activity (Rattus norvegicus): 52.3%

CC1=C2C3=CC[C@@H]4[C@@]5(C)C[C@@H](O)[C@H](O)[C@@](C)(CO)[C@@H]5[C@H](O)C[C@@]4(C)[C@]3(C)CC[C@@]2(C(=O)O[C@@H]2O[C@H](CO)[C@@H](O)[C@H](O)[C@H]2O)CC[C@H]1C [QUADRANOSIDE V]
IC50 (Hepatocyte [13]): 30.2 µM
Activity (Hepatocyte [14]): 67.5%

CC(=O)C[C@@H](C)[C@H]1CC[C@@]2(C)[C@@H]3C(=O)C=C4[C@@H](CC[C@@H](O)C4(C)C)[C@]3(C)CC[C@]12C
Activity (HepG2): 56.9%

C=C(C)[C@@H]1CC[C@]2(C(=O)O[C@@H]3O[C@H](CO)[C@@H](O)[C@H](O)[C@H]3O)CC[C@]3(C)[C@H](CC[C@@H]4[C@@]5(C)C[C@@H](O)[C@H](O)[C@](C)(CO)[C@@H]5CC[C@]43C)[C@@H]12
Activity (Hepatocyte [15]): 40.9%

CC(=O)O[C@H]1[C@@H]2O[C@@]3(C(C)(C)O)CC[C@](C)(O3)C2[C@@]2(CO)CC[C@@]34C[C@@]35CC[C@H](O[C@@H]3OC[C@@H](O)[C@H](O)[C@H]3O)C(C)(C)C5CC[C@H]4[C@]12C (stereo not given in full)
EC50 (L02): 74.1 µM

C[C@@H]1CC[C@]2(C(=O)O[C@@H]3O[C@H](CO)[C@@H](O)[C@H](O)[C@H]3O)CC[C@]3(C)C(=CC[C@@H]4[C@@]5(C)C[C@@H](O)[C@H](O)C(C)(C)[C@@H]5CC[C@]43C)[C@@H]2[C@]1(C)O
IC50 (Hepatocyte [5]): 35.5 µM
inhibition in vivo at 100 mg/kg (Mus musculus [6]): 65.2%
inhibition in vivo at 100 mg/kg (Mus musculus [7]): 71.1%
IC50 (Hepatocyte [13]): 55.7 µM

CC(=O)O[C@H](C/C=C(/C)C(=O)O)[C@@H](C)[C@H]1CCC2(C)[C@@H]3CC[C@H]4C(C)(C)C(=O)CC[C@@]45C[C@@]35CC[C@]12C (stereo not given in full)
Activity (Mus musculus [17]): 30.8%

CC1=CC[C@H]([C@@H](C)[C@H]2CC[C@@]3(C)[C@@H]4CC[C@@H](C(C)(C)O)[C@@]5(CCC(=O)O)C[C@@]45CC[C@@]23C)OC1=O
Activity (Mus musculus [17]): 35.7%
